Source: US20250262214A1, “INTERMITTENT DOSING REGIMEN FOR AZENOSERTIB IN TREATING CANCER” (Zeno Management, Inc., priority 2022, published 2025)
Entries after “also recorded” stand apart in the source; their conditions may differ. Like-named read-outs stand apart in the source and are kept apart here.

Experiments:
[1] = tested on: non-small cell lung carcinoma (NSCLC) A427; assay: Non-small cell lung carcinoma (NSCLC) A427 model, tumor volume and body weight; assay type: in vivo, human
Procedure: In an exemplary non-small cell lung carcinoma (NSCLC) A427 model, Azenosertib was administered at a higher intermittent dose than a corresponding lower continuous dose. For example, Azenosertib was administered at 56 mg/kg in 4 dosing cycles of 5 days on/2 days off (5/2) and compared with a lower continuous dose of 40 mg/kg. Similarly, 112 mg/kg of Azenosertib in 4 dosing cycles of 5 days on/2 days off was compared with a lower continuous dose of 80 mg/kg.
The tumor volume was measured (FIG. 1C) as well as body weight (FIG. 1D) for 28 days post initiation of treatment.
In an exemplary non-small cell lung carcinoma (NSCLC) A427 model, Azenosertib was administered at a higher intermittent dose than a corresponding lower continuous dose. For example, Azenosertib was administered at 100 mg/kg in 4 dosing cycles of 4 days on/3 days off (4/3) and compared with a lower continuous dose of 60 mg/kg.
Change in tumor volume over 25 days post tumor initiation is shown in FIG. 1E, while corresponding change in body weight during treatment is shown in FIG. 1F.

[2] = tested on: human ovarian cancer SKOV3; assay: Human ovarian cancer SKOV3 animal model, tumor volume; assay type: in vivo; details: 80 mg/kg 3 cycles 5 days on/2 days off vs continuous 60 mg/kg, 21 days
Procedure: In an exemplary human ovarian cancer SKOV3 animal model, Azenosertib was administered at a continuous dose of 60 mg/kg or at an intermittent dosing of 80 mg/kg at 3 cycles of 5 days on/2 days off (5/2).

[3] = tested on: human ovarian cancer OVCAR3; assay: Human ovarian cancer OVCAR3 model, tumor volume; assay type: in vivo
Procedure: In an exemplary human ovarian cancer OVCAR3 model, Azenosertib was administered at a dose of about 100 mg/kg at intermittent dosing regimen of 3 cycles of 7 days on/7 days off (7/7). Tumor volume change was plotted in FIG. 1I and corresponding change in body weight in FIG. 1J until about 32 days post-initiation of treatment.
In an exemplary human ovarian cancer OVCAR3 model, Azenosertib was administered based on an intermittent dosing regimen of 5 days on/2 days off (5/2) for a once daily dose (as compared to a twice daily dose (e.g., 80 mg/kg once daily vs. 40 mg/kg twice daily and 100 mg/kg once daily vs. 50 mg/kg twice daily).
Tumor volume was measured as shown in FIG. 2A and corresponding changes in body weight are shown in FIG. 2B until about 22 days post initiation of treatment.
In an exemplary human ovarian cancer OVCAR3 model, Azenosertib was administered at two different doses in each of two intermittent dosing regimen. Briefly, Azenosertib was administered 5 cycles of a 5 days on/2 days off (5/2) intermittent regimen at a dose of about 80 mg/kg (cumulative dose of 400 mg) and 90 mg/kg (cumulative dose of 450 mg) and also 4 cycles of a 4 days on/3 days off (4/3) intermittent regimen at 90 mg/kg (cumulative dose of 450 mg) and 100 mg/kg (cumulative dose of 500 mg). The results were compared with a continuous dose of 60 mg/kg for 22 days (cumulative dose of 300 mg).
Changes in tumor volume are shown in FIG. 2C and corresponding change in body weight in FIG. 2D until about 24 days post-initiation of treatment.
In an exemplary human ovarian cancer OVCAR3 model, Azenosertib was administered at 100 mg/kg in 3 cycles each of two intermittent dosing regimen, 4 days on/3 days off (4/3) or 3 days on/4 days off (3/4). Further, a continuous dosing of 60 mg/kg was administered for 24 days.
At a dose of 3 cycles of about 100 mg/kg for 4/3, the cumulative dose was 1200 mg, while at a dose of 3 cycles of about 100 mg/kg for 3/4, the cumulative dose was 900 mg.
Azenosertib and the PARPi, talazoparib, were evaluated using OVCAR-3 models on an intermittent dosing schedule. […] In addition, the alternating dosing schedule may potentially abrogate overlapping toxicity with WEE1 inhibitor and PARPi coadministration.
In an exemplary human ovarian cancer OVCAR3 animal model, Azenosertib was administered at an intermittent dosing of 60 mg/kg or 80 mg/kg at 3 cycles of 5 days on/2 days off, while Paclitaxel and Carboplatin were also each administered at respectively 20 mg/kg and 25 mg/kg, once a week, for 3 weeks In addition, the combinations of Azenosertib and Paclitaxel and of Azenosertib and Carboplatin were administered in accordance with the same dosing regimens and doses as their respective monotherapies.

[4] = Clinical exposure (plasma PK) with continuous and intermittent 5/2 dosing; assay type: in vivo, human; details: for Cmax / Tmax / AUC: human, plasma, oral; for AUC: read-out: AUC24
Procedure: This example illustrates the clinical exposure achieved with a continuous and an intermittent 5 days on/2 days off (5/2) dosing regimen. A comparison is also made between a once daily dosing regimen and a twice daily dosing regimen. In some embodiments, Azenosertib was administered with food and/or antiemetic agents.
The results are shown as follows: FIG. 5A is a graph of Azenosertib plasma concentration from subjects receiving a 5/2 350 mg once daily or 175 mg twice daily on day 1, cycle 1. FIG. 5B is a graph of Azenosertib plasma concentration from subjects receiving a 5/2 350 mg once daily or 175 mg twice daily on day 11/12, cycle 1. FIG. 5C is a graph of Azenosertib plasma concentration from subjects receiving a continuous dosing regimen relative to subjects receiving a 5/2 intermittent 350 mg once daily dosing regimen on day 1, cycle 1. FIG. 5D is a graph of Azenosertib plasma concentration from subjects receiving a continuous dosing regimen relative to subjects receiving a 5/2 intermittent 350 mg once daily dosing regimen on day 11/12 or 15 of cycle 1. FIG. 5E is a graph of Azenosertib plasma concentration from subjects receiving a continuous dosing regimen relative to subjects receiving a 5/2 intermittent 175 mg twice daily dosing regimen on day 1, cycle 1. FIG. 5F is a graph of Azenosertib plasma concentration from subjects receiving a continuous dosing regimen relative to subjects receiving a 5/2 intermittent 175 mg twice daily dosing regimen on day 11/12 or 15 of cycle 1.

[5] = 175 mg, 175 twice daily, 5/2, steady state (Day 12/11)
[6] = 175 mg, 175 twice daily, Continuous, mean steady state (Day 12/11)
[7] = 300 mg, 300 once daily, Continuous, mean steady state (Day 12/11)
[8] = 350 mg, 350 once daily, 5/2, mean steady state (Day 12/11)
[9] = 350 mg, 350 once daily, Continuous, mean steady state (Day 12/11)

## C=CCn1c(=O)c2cnc(Nc3ccc(N4CCN(C)CC4)cc3)nc2n1-c1ccc2c(n1)[C@@](O)(CC)CC2 [Azenosertib, (R)-2-allyl-1-(7-ethyl-7-hydroxy-6,7-dihydro-5H-cyclopenta[b]pyridin-2-yl)-6-((4-(4-methylpiperazin-1-yl)phenyl)amino)-1,2-dihydro-3H-pyrazolo[3,4-d]pyrimidin-3-one]
[1]; 100 mg/kg 4 cycles 4 days on/3 days off vs continuous 60 mg/kg, 25 days
  tumor volume, intermittent vs continuous dosing: more efficacious; also recorded: slightly more efficacy than lower continuous dosing
[1]; 56 or 112 mg/kg 4 cycles 5 days on/2 days off vs continuous 40 or 80 mg/kg, same total cumulative dose, 28 days
  tumor volume, intermittent vs continuous dosing: more efficacious; also recorded: more efficacy in reducing tumor volume than lower continuous dosing
[1]; all doses (40, 80 mg/kg continuous; 56, 112 mg/kg 5/2)
  tolerability (body weight): well tolerated
[2]
  change in tumor volume, intermittent vs continuous dosing: more efficacious; also recorded: higher efficacy than continuous dosing in reducing tumor volume
[3]; 100 mg/kg 3 cycles 4/3 or 3/4 vs 60 mg/kg continuous for 24 days
  tumor volume, intermittent 4/3 or 3/4 vs continuous dosing: higher efficacy than continuous dosing
[3]; 100 mg/kg, 3 cycles, 4/3 = higher cumulative dose
  efficacy of 4/3 regimen vs 3/4 regimen: slightly higher efficacy
[3]; 5/2, 80 mg/kg once daily vs 40 mg/kg twice daily, 100 mg/kg once daily vs 50 mg/kg twice daily, same cumulative dose
  tumor volume, once daily vs twice daily dose: more efficacious relative to each twice daily dose; also recorded: more efficacious relative to a twice daily dose
[3]; 80, 90 mg/kg 5/2 and 90, 100 mg/kg 4/3 vs 60 mg/kg continuous, about 24 days
  tumor volume, intermittent 5/2 and 4/3 vs continuous dose: more efficacious than the lower continuous dose
[3]; about 100 mg/kg, 3 cycles of 7 days on/7 days off, about 32 days
  tumor volume, 7/7 intermittent dosing regimen: effective in reducing tumor volume
[4]; 350 mg once daily (or 175 mg twice daily), 5/2 vs continuous
  exposure, intermittent vs continuous dose: higher for intermittent vs. continuous; also recorded: comparable or better exposure
[4]; [5]
  Cmax: 1470 ng/mL
  Tmax: 1 h
  AUC: 13300 ng·h/mL
[4]; [6]
  Cmax: 738 ng/mL
  Tmax: 2.3 h
  AUC: 10800 ng·h/mL
[4]; [7]
  Cmax: 1090 ng/mL
  Tmax: 2.8 h
  AUC: 10800 ng·h/mL
[4]; [8]
  Cmax: 1490 ng/mL
  Tmax: 3 h
[4]; 350 mg, 350 once daily, 5/2, steady state (Day 12/11)
  AUC: 10300 to 15800 ng·h/mL
[4]; [9]
  Cmax: 840 ng/mL
  Tmax: 2.2 h
  AUC: 7140 ng·h/mL
